Source: article PMC3972818 (Nature medicine, 2014)
Converted amounts (≈) assume the structure as drawn.

Key:
[1] = tested on: M. tuberculosis ATCC 35837; experiment: microbe, parasite or virus in culture; format: cell-based; conditions: Mycobacterium tuberculosis, ATCC35837
M. tuberculosis H37Rv = experiment: MIC, microbroth dilution; format: cell-based; conditions: Mycobacterium tuberculosis
[2] = tested on: M. tuberculosis ATCC 35822; format: cell-based, Mycobacterium tuberculosis
[3] = tested on: M. tuberculosis ATCC 35820; format: cell-based, Mycobacterium tuberculosis
[4] = tested on: M. tuberculosis ATCC 35838; format: cell-based, Mycobacterium tuberculosis
[5] = tested on: M. tuberculosis H37Rv-HL-14; format: cell-based, Mycobacterium tuberculosis
[6] = tested on: M. tuberculosis H37Rv-HL-15; format: cell-based, Mycobacterium tuberculosis

Row | SMILES | MIC [1] [µg/mL] | MIC (M. tuberculosis H37Rv) [µg/mL] | MIC [2] [µg/mL] | MIC [3] [µg/mL] | MIC [4] [µg/mL] | MIC [5] [µg/mL] | MIC [6] [µg/mL]
1 | CC[C@@H](CO)NCCN[C@@H](CC)CO [Ethambutol] | > 25 |  |  |  |  |  | 
2 | CN[C@@H]1[C@H](O)[C@H](NC)[C@H]2O[C@@]3(O)C(=O)C[C@@H](C)O[C@H]3O[C@@H]2[C@H]1O [Spectinomycin, spectinomycin] | 100 (≈ 301 µM) | 100 (≈ 301 µM) | 100 (≈ 301 µM) | 200 (≈ 602 µM) | 100 (≈ 301 µM) | >200 | >200
3 | [H]/N=C(/N)N[C@H]1[C@H](O)[C@@H](O)[C@H](O[C@@H]2O[C@@H](C)[C@](O)(C=O)[C@H]2O[C@@H]2O[C@@H](CO)[C@H](O)[C@@H](O)[C@@H]2NC)[C@@H](N/C(N)=N\[H])[C@@H]1O [Streptomycin, streptomycin] | 1.6 (≈ 2.75 µM) | 1.6 (≈ 2.75 µM) | 1.6 (≈ 2.75 µM) | >200 | 1.6 (≈ 2.75 µM) | 1.6 (≈ 2.75 µM) | 1.6 (≈ 2.75 µM)
